Experiment [1] relates to MDA-MB-231. Description: Antiproliferative activity against human MDA-MB-231 cells after 24 hrs by SRB assay. In kind it is functional, cell-based. The conditions noted are these: MDA-MB-231, 24 h.
The subject of experiment [2] is HEK293. The experiment in a line: Antiproliferative activity against HEK293 cells after 24 hrs by SRB assay. In kind it is cell-based. The following applies: Homo sapiens, HEK293, 24 h. For orientation: In SRB staining, fixed cells bind dye roughly in proportion to their protein.
In experiment [3] the test system is HeLa. The experiment in a line: Antiproliferative activity against human HeLa cells after 24 hrs by SRB assay. Type of experiment: functional, cell-based.
The subject of experiment [4] is A549. The experiment in a line: Antiproliferative activity against human A549 cells after 24 hrs by SRB assay. In kind it is functional, cell-based. The following applies: A549, 24 h.
The test system of experiment [5] is HeLa. The experiment in a line: Inhibition of microtubules in human HeLa cells assessed as induction of cell cycle arrest in metaphase at 5 uM after 24 hrs by DAPI staining-based confocal microscopic analysis.
For experiment [6], the system named is HeLa. The experiment in a line: Cell cycle arrest in human HeLa cells assessed as accumulation of cells at G2/M phase at 5 uM after 24 hrs by propidium iodide staining-based flow cytometric analysis (reference value: 16.4%). Type of experiment: functional. On the technique in general: In flow cytometry, cells or beads pass a laser one at a time.
The test system of experiment [7] is HeLa. The experiment in a line: Inhibition of microtubules in human HeLa cells assessed as induction of disorganized spindle fibers formation at 5 uM after 24 hrs by DAPI staining-based confocal microscopic analysis. In kind it is cell-based.
In experiment [8] the test system is HeLa. Description: Induction of apoptosis in human HeLa cells assessed as increase in p53 expression at 5 uM after 24 hrs by Western blot analysis. In kind it is functional, cell-based. On the technique in general: In western blotting, separated proteins are transferred to a membrane and probed.
The subject of experiment [9] is HeLa. The experiment in a line: Inhibition of microtubules in human HeLa cells assessed as increase in cyclin B1 protein level at 5 uM affter 24 hrs by Western blot analysis. In kind it is cell-based.
For experiment [10], the system named is HeLa. The experiment in a line: Induction of apoptosis in human HeLa cells assessed as increase in caspase-3 activation at 5 uM after 24 hrs by fluorescence assay. In kind it is functional, cell-based.
Experiment [11] deals with HeLa. The experiment in a line: Inhibition of microtubules in human HeLa cells assessed as increase in CDK1 protein level at 5 uM affter 24 hrs by Western blot analysis. In kind it is cell-based.
For experiment [12], the system named is HeLa. Description: Induction of apoptosis in human HeLa cells assessed as increase in Bax expression at 5 uM after 24 hrs by Western blot analysis. In kind it is functional, cell-based.
Experiment [13] relates to HeLa. The experiment in a line: Induction of apoptosis in human HeLa cells assessed as increase in p21 expression at 5 uM after 24 hrs by Western blot analysis. In kind it is functional, cell-based.
Experiment [14] relates to HeLa. The experiment in a line: Induction of apoptosis in human HeLa cells assessed as increase in Bax expression at 5 uM after 24 hrs by DAPI staining-based immunocytochemistry. Type of experiment: functional, cell-based.
Experiment [15] deals with Tubulin (Homo sapiens) (UniProt P68371+Q9H4B7+P0DPH7+P68366+Q13509+Q71U36+P04350+Q3ZCM7+P07437+P68363+Q9BQE3+Q6PEY2+Q13885+Q9BVA1+Q9BUF5). Description: Inhibition of tubulin polymerization in human HeLa cells assessed as reduction in polymerized tubulin expression at 5 uM affter 24 hrs by Western blot analysis. Type of experiment: cell-based.
Experiment [16] deals with HeLa. The experiment in a line: Induction of apoptosis in human HeLa cells assessed as increase in p53 expression at 5 uM after 24 hrs by DAPI staining-based immunocytochemistry. In kind it is functional, cell-based.

SMILES strings stand for the structures. Activity calls are given as the source filed them. No cut-off for these calls is given here.

Turning to `COc1ccc2c(c1)-c1n[nH]c(/C=C3\C(=O)Nc4ccc(Br)cc43)c1C2`, the IC50 in [1] worked out at 34.1 µM; in experiment [2] it was 35.8 µM; in [3], 30.9 µM; in experiment [4], 29.8 µM.
Consider `O=C1Nc2cc(Cl)ccc2/C1=C/c1[nH]nc2c1Cc1ccccc1-2`, for which the IC50 in [1] worked out at 24.3 µM; in experiment [2] it was 19.4 µM; in experiment [3], 14.6 µM; in [4] it was 20.5 µM.
The corresponding values for `O=C1Nc2cc(Br)ccc2/C1=C/c1[nH]nc2c1Cc1ccccc1-2` are 29.7 µM, 34.2 µM, 30.7 µM and 35.6 µM.
The corresponding values for `COc1ccc2c(c1)-c1n[nH]c(/C=C3\C(=O)Nc4cc(Br)ccc43)c1C2` are 23.4 µM, 28.6 µM, 25.4 µM and 26.1 µM.
The corresponding values for `COc1ccc2c(c1)-c1n[nH]c(/C=C3\C(=O)Nc4ccccc43)c1C2` are 19.3 µM, 22.5 µM, 16 µM and 20.6 µM.
Regarding `COc1ccc(/C=C\c2cc(OC)c(OC)c(OC)c2)cc1O` [COMBRETASTATIN A4], the inhibition result in experiment [5] and in experiment [7] was “Active” throughout. Also, the IC50 in experiment [1] was determined as 0.92 µM; in [2] it was 1.73 µM; in [3], 1.43 µM; in [4] it was 1.15 µM. Further, the Activity in experiment [6] came to 55.8%.
Regarding `COc1ccc2c(c1)/C(=C/c1[nH]nc3c1Cc1ccccc1-3)C(=O)N2`, the IC50 in experiment [1] came to 26.7 µM; in experiment [2], 33.9 µM; in experiment [3], 30.1 µM; in [4], 29.6 µM.
The corresponding values for `COc1cc2c(cc1OC)-c1n[nH]c(/C=C3\C(=O)Nc4cc(Br)ccc43)c1C2` are 20.4 µM, 24.6 µM, 20.5 µM and 22.5 µM.
The corresponding values for `O=C1Nc2ccc(Cl)cc2/C1=C/c1[nH]nc2c1Cc1ccccc1-2` are 16.8 µM, 24.3 µM, 15.2 µM and 20.5 µM.
As to `COc1cc2c(cc1OC)-c1n[nH]c(/C=C3\C(=O)Nc4cc([N+](=O)[O-])ccc43)c1C2`, the IC50 in [1] worked out at 29.9 µM; in experiment [2], 36.7 µM; in experiment [3] it was 30.7 µM; in experiment [4], 34.4 µM.
The corresponding values for `O=C1Nc2ccc(Br)cc2/C1=C/c1[nH]nc2c1Cc1ccccc1-2` are 20.3 µM, 22.5 µM, 16.9 µM and 21.1 µM.
The corresponding values for `O=C1Nc2ccccc2/C1=C/c1[nH]nc2c1Cc1ccccc1-2` are 19 µM, 24.3 µM, 11.7 µM and 16.6 µM.
On to `COc1cc2c(cc1OC)-c1n[nH]c(/C=C3\C(=O)Nc4cc(Cl)ccc43)c1C2`, for which the inhibition entry in [5], in [9], in experiment [11], in [7] and in experiment [15] was “Active” each time. The IC50 came to 2.08 µM in experiment [1], 2.97 µM in experiment [2], 1.33 µM in experiment [3] and 2.44 µM in experiment [4]. In addition, the result in experiment [8], in experiment [10], in experiment [12], in experiment [13], in experiment [14] and in experiment [16] was Active. Besides, the Activity in [6] stood at 30.3%.
For `COc1ccc2c(c1)-c1n[nH]c(/C=C3\C(=O)Nc4ccc(Cl)cc43)c1C2`, the IC50 in [1] came out at 20.8 µM; in [2] it was 27.4 µM; in experiment [3], 17.5 µM; in experiment [4], 17.6 µM.
The corresponding values for `COc1cc2c(cc1OC)-c1n[nH]c(/C=C3\C(=O)Nc4ccc(Cl)cc43)c1C2` are 12.3 µM, 9.21 µM, 8.96 µM and 13.5 µM.
As for `COc1cc2c(cc1OC)-c1n[nH]c(/C=C3\C(=O)Nc4ccccc43)c1C2`, the inhibition entry in experiment [5], in experiment [9], in [11], in experiment [7] and in experiment [15] was “Active” throughout. The IC50 in experiment [1] turned out to be 3.45 µM; in experiment [2], 4.36 µM; in [3], 2.16 µM; in experiment [4], 2.92 µM. Moreover, in experiment [10], the result was Active. Moreover, the Activity in experiment [6] is recorded as 23.6%.
As for `COc1cc2c(cc1OC)-c1n[nH]c(/C=C3\C(=O)Nc4ccc(Br)cc43)c1C2`, the IC50 in experiment [1] was 18.7 µM; in [2] it was 19.6 µM; in experiment [3], 11.5 µM; in experiment [4], 17.1 µM.
The corresponding values for `COc1ccc2c(c1)-c1n[nH]c(/C=C3\C(=O)Nc4ccc([N+](=O)[O-])cc43)c1C2` are 29.2 µM, 30.8 µM, 22.1 µM and 26 µM.
In the case of `COc1ccc2c(c1)/C(=C/c1[nH]nc3c1Cc1cc(OC)c(OC)cc1-3)C(=O)N2`, the inhibition entry in [5], in experiment [9], in [11], in experiment [7] and in [15] was “Active” throughout. For the same compound, the IC50 in [1] turned out to be 4.14 µM; in experiment [2] it was 5.1 µM; in experiment [3], 2.58 µM; in [4] it was 3.43 µM. The Activity in experiment [6] is 31.3%.
As to `COc1ccc2c(c1)-c1n[nH]c(/C=C3\C(=O)Nc4cc(Cl)ccc43)c1C2`, the IC50 in experiment [1] was found to be 19 µM; in [2] it was 21.9 µM; in experiment [3], 17 µM; in experiment [4], 20.9 µM.

By IC50 is commonly meant the concentration at which inhibition is half-maximal. Read a low IC50 as greater potency.

These data come from ChEMBL document CHEMBL4251604, “Design, synthesis and biological evaluation of 1, 4-dihydro indeno[1,2-c] pyrazole linked oxindole analogues as potential anticancer agents targeting tubulin and inducing p53 dependent apoptosis” (Eur J Med Chem, 2018).
